Experimental data reported in patent publication US20110117200A1 (ACTAVIS GROUP PTC EHF, priority 2008, published 2011).
Counter-ions that a name gives are not always drawn.

Tests used:
[1] = sunflower oil dispersant; for Particle size (D50): size below which 50% of the particles by volume are found; for Particle size (D90): size below which 90% of the particles by volume are found
Experimental: Particle Size Distribution (PSD)” is determined by laser diffraction in a Malvern Master Sizer 2000 equipment or its equivalent: Measurement conditions:
As used herein, “Particle Size Distribution (P.S.D)” means the cumulative volume size distribution of equivalent spherical diameters as determined by laser diffraction in Malvern Master Sizer 2000 equipment or its equivalent.
As used herein, Dx means that X percent of the particles have a diameter less than a specified diameter D. Thus, a D90 or d(0.9) of less than 300 microns means that 90 volume-percent of the particles in a composition have a diameter less than 300 microns.
The important characteristics of the PSD were the (D90), which is the size, in microns, below which 90% of the particles by volume are found, and the (D50), which is the size, in microns, below which 50% of the particles by volume are found.

[2] = cited from earlier work
[3] = molecular target: B-form of the enzyme monoamine oxidase (MAO-B) (Homo sapiens, UniProt P27338); settings: qualitative statement in the background; cited from earlier work
Sequence of B-form of the enzyme monoamine oxidase (MAO-B) (P27338 whole entry, species assumed): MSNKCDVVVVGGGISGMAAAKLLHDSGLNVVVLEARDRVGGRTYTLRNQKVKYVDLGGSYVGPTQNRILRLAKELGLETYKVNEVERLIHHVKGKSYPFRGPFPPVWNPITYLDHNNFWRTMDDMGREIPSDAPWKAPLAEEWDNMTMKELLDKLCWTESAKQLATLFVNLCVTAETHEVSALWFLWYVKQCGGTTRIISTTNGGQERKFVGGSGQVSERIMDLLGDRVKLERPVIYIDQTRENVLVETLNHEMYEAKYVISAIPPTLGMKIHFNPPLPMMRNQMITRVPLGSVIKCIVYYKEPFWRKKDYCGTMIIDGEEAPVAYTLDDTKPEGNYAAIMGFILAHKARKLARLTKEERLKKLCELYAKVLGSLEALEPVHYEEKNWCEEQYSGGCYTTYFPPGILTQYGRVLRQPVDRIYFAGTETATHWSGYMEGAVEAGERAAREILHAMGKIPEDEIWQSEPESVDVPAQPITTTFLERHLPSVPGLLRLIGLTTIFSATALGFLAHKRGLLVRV

Compound	Particle size (D50) [1]	Particle size (D90) [1]	also measured
C#CCN[C@@H]1CCc2ccccc21 [Example 1, rasagiline mesylate]	663 microns	1407 microns	–
C#CCN[C@@H]1CCc2ccccc21 [Example 2, rasagiline mesylate]	864 microns	1496 microns	–
C#CCN[C@@H]1CCc2ccccc21 [Example 3, rasagiline mesylate]	–	less than 300 microns	–
C#CCN[C@@H]1CCc2ccccc21 [Example 4, rasagiline mesylate]	–	less than 400 microns	–
C#CCN[C@@H]1CCc2ccccc21.CS(=O)(=O)O [Rasagiline mesylate, rasagiline mesylate]	–	–	Solubility in ethanol ([2]; ethanol): freely soluble; Solubility in isopropanol ([2]; isopropanol): sparingly soluble; Solubility in water ([2]; water): freely soluble
C#CCN[C@@H]1CCc2ccccc21 [Rasagiline, R(+)—N-propargyl-1-aminoindan]	–	–	Inhibition of MAO-B [3]: selective inhibitor
